Read-outs that look alike come from different tables or passages of the source.
What was measured:
PGE2 = assay: Inhibition of PGE2 formation in rabbit articular chondrocytes stimulated with IL-1β (RIA); assay type: cell-based; conditions: for IC50: Oryctolagus cuniculus, Chondrocyte
Procedure: (§1) a) The inhibitory activity on the formation of NO measured as NO2^− (nitrite) and PGE2 was studied in vitro on culture media of rabbit articular chondrocytes stimulated with the cytokine IL-1β (1 ng/ml) for 48 hours. For the preparation of the chondrocytes, the method described by Berenbaum et al. [FEBS Letters 340, 51-55 (1994)] was followed. Briefly, fragments of cartilage removed aseptically from the articular heads of rabbit shoulder, hip and knee were finely ground and digested at 37° C. in hyaluronidase, trypsin and collagenase solutions, giving, after filtration through sterile gauze and centrifugation at 600×g and suitable dilution with 10% DMEM-FCS 10%, a concentration per well of about 1×10^5 cells. The cells were maintained under these conditions until confluent (about 15 days), the medium being replaced every 3 days. At this point, the test products dissolved in the medium were added to each sample and, after 20 minutes, 350 μl of IL-1β were added, to give a final concentration of 1 ng/ml. The stimulation lasted 48 hours at 37° C. (incubation in air/7% CO2). A nitrite assay was subsequently performed on the cell supernatant, as described by Green et al. [Anal. Biochem. 126, 131-138 (1982)], and of PGE2 by RIA assay. The results obtained are shown in Table 3, in which is given, for a number of the compounds that are the subject of the invention and that are already illustrated in Table 1, the IC50, i.e. the concentration (micromolar) of antagonist capable of inhibiting the formation of nitrites and PGE2 by 50% relative to the control group, i.e. relative to the cells stimulated with IL-1β but without addition of antagonists.

[1] = tested on: rabbit articular chondrocytes; assay: Cellular toxicity on rabbit articular chondrocytes; assay type: cell-based; conditions: noted beside IN in Table 3
Procedure: as §1

[2] = rabbit articular chondrocytes, IL-1β 1 ng/ml, 48 hours, RIA, read-out: Inhibition % IC50 PGE2
[3] = rabbit articular chondrocytes, IL-1β 1 ng/ml, 48 hours, RIA

## COc1ccc(-c2nc3cc(NC(C)=N)ccc3s2)cc1 [Compound 15, N-[2-(4-methoxyphenyl)benzothiazol-5-yl]acetamidine]
PGE2; [2]
  IC50: 7400 nM
[1]
  Tox = cellular toxicity (concentration): 30 µM
other
  melting point: 203 to 204.7 °C

## COc1cccc(-c2nc3cc(NC(C)=N)ccc3s2)c1 [Compound 17, N-[2-(3-methoxyphenyl)benzothiazol-5-yl]acetamidine]
PGE2; [2]
  IC50: 1300 nM
[1]
  Tox = cellular toxicity (concentration): 30 µM
other
  melting point: 141.6 to 145.6 °C

## COc1ccc(-c2nc3cc(NC(C)=N)ccc3s2)c(OC)c1 [Compound 16, N-[2-(2,4-dimethoxyphenyl)benzothiazol-5-yl]acetamidine]
PGE2; [3]
  Inhibition % IC50 PGE2: IN (IN = <25% inhibitory activity at 30 × 10^−6M)
[1]
  Tox = cellular toxicity (concentration): 30 µM
other
  melting point: 156.4 to 158.3 °C

## CC(=N)Nc1ccc2oc(-c3ccc(Cl)cc3)nc2c1 [Compound 30, N-[2-(4-chlorophenyl)benzoxazol-5-yl]acetamidine]
PGE2; rabbit articular chondrocytes stimulated with IL-1β, read-out: IC50, formation of PGE2
  IC50: 300 to 800 nM
PGE2; [2]
  IC50: 300 nM
[1]
  Tox = cellular toxicity (concentration): 30 µM
other
  melting point: 183.6 to 185.1 °C

## CC(=N)Nc1ccc2c(c1)cc(-c1ccccc1)n2C [Compound 6, N-(1-methyl-2-phenyl-1H-indol-5-yl)acetamidine]
PGE2; [3]
  Inhibition % IC50 PGE2: IN (IN = <25% inhibitory activity at 30 × 10^−6M)
[1]
  Tox = cellular toxicity (concentration): 30 µM
other
  melting point: 184.6 to 185.8 °C

Source: US20050197331A1, “Novel anti-inflammatory and analgesic heterocyclic amidines that inhibit nitrogen oxide (NO) production” (ROTTAPHARM SPA, priority 2004, published 2005)
